One data set concerns L1210. Description: Antitumor activity against mouse L1210 cells allografted in ip dosed BDF1 mouse assessed as increase of life span of host measured up to 45 days. The data set is classed as functional. The following applies: 1080 h.
A further data set has as its system Mus musculus. Briefly: Toxicity in ip dosed BDF1 mouse. The data set is classed as organism-based. Particulars: in vivo.
Data set [1] can be described thus: Therapeutic index, ratio of LD10 for BDF1 mouse to ED50 for mouse L1210 cells allografted in ip dosed BDF1 mouse. The data set is classed as organism-based. Particulars: in vivo, read-out: TI.
Data set [2] in a line: Octanol-water partition coefficient, log P of the compound. The data set is classed as physicochemical.
A short description of data set [3]: Octanol-water partition coefficient, log P of the compound at pH 7.4. The data set is classed as physicochemical.

As for `CC(=O)O[C@H]1CC[C@H](NC(=O)N(CCF)N=O)CC1`, in the data set with L1210, the ED50 (as a rule, the dose that gives a 50% effect, or the effect in half of the subjects) was 18 mg/kg. In the data set on Mus musculus, this compound returned an LD10 of 36 mg/kg. In data set [1], the selectivity ratio stood at 0.5. Also, the logP (as a rule, a log measure of how a compound divides between an organic and an aqueous phase) in data set [2] (read-out: logP) was determined as 2.
`COC(=O)[C@H]1CC[C@H](NC(=O)N(CCCl)N=O)CC1`: the 50% effective dose (ED50) with L1210 was 14 mg/kg. The LD10 in the data set with Mus musculus was found to be 26 mg/kg. Moreover, in data set [1], the selectivity ratio stood at 0.54. Further, in data set [2] (read-out: logP), the logP was determined as 2.6.
Consider `C[C@H]1SC[C@@H](NC(=O)N(CCCl)N=O)CS1`, for which the ED50 with L1210 was 16 mg/kg. The compound also yielded an LD10 in the data set with Mus musculus of 31 mg/kg. In data set [1], the selectivity ratio was 0.53. Also, the logP in data set [2] (read-out: logP) worked out at 2.6.
Turning to `O=NN(CCCl)C(=O)NC(C(=O)O)C1CCCCC1` (stereo not given), the 50% effective dose (ED50) in the data set on L1210 is 50 mg/kg. In addition, the logD (as a rule, lipophilicity at a set pH, counting ionised and neutral species) in data set [3] is 0. In the data set with Mus musculus, this compound gave an LD10 of 73 mg/kg. Also, in data set [1], the selectivity ratio amounted to 0.63.
As to `C[C@H]1S(=O)(=O)C[C@H](NC(=O)N(CCCl)N=O)CS1(=O)=O`, the ED50 with L1210 is 19 mg/kg. This compound had an LD10 in the data set with Mus musculus of 51 mg/kg. The selectivity ratio in data set [1] stood at 0.37. In data set [2] (read-out: logP), the logP is -0.4.
Consider `O=COC[C@H]1CC[C@H](NC(=O)N(CCCl)N=O)CC1`, for which the ED50 in the data set on L1210 came to 10 mg/kg. In addition, in the data set with Mus musculus, the LD10 was 22 mg/kg. For the same compound, the selectivity ratio in data set [1] worked out at 0.45. Further, the logP in data set [2] (read-out: logP) was 2.6.
Take `C[C@H]1CC[C@H](NC(=O)N(CCF)N=O)CC1`: the ED50 in the data set on L1210 came to 25 mg/kg. The compound further yielded an LD10 in the data set with Mus musculus of 44 mg/kg. Besides, in data set [1], the selectivity ratio is 0.57. Also, the logP in data set [2] (read-out: logP) is 2.7.
`O=NN(CCCl)C(=O)NC1CCCCC1` [LOMUSTINE]: the ED50 in the data set on L1210 turned out to be 37 mg/kg. The compound also registered an LD10 with Mus musculus of 48 mg/kg. For the same compound, in data set [1], the selectivity ratio is 0.77. Besides, in data set [2] (read-out: logP), the logP stood at 2.8.
Turning to `CCOC(=O)[C@@H]1CCC[C@H](NC(=O)N(CCCl)N=O)C1` (relative stereo), the median effective dose (ED50) in the data set with L1210 was found to be 28 mg/kg. The compound further yielded an LD10 in the data set on Mus musculus of 50 mg/kg. In data set [1], the selectivity ratio was found to be 0.56. Moreover, the logP in data set [2] (read-out: logP) was 3.1.
For the compound `COC(=O)[C@H]1CC[C@@H](NC(=O)N(CCCl)N=O)CC1`, the ED50 in the data set with L1210 was 15 mg/kg. The LD10 in the data set with Mus musculus worked out at 54 mg/kg. In addition, the selectivity ratio in data set [1] was 0.28. Moreover, in data set [2] (read-out: logP), the logP stood at 2.6.
For `C[C@H]1CC[C@H](NC(=O)N(CCCl)N=O)CC1` the same measures were 18 mg/kg, 42 mg/kg, 0.43 and 3.3.
`CC(=O)OC[C@H]1CC[C@H](NC(=O)N(CCCl)N=O)CC1`: in the data set with L1210, the median effective dose (ED50) was determined as 14 mg/kg. This compound gave an LD10 in the data set on Mus musculus of 28 mg/kg. For the same compound, the selectivity ratio in data set [1] was found to be 0.5. Moreover, the log partition coefficient (logP) in data set [2] (read-out: logP) was 3.1.
`CCCCCC(C)NC(=O)N(CCCl)N=O` (stereo not given): in the data set with L1210, the 50% effective dose (ED50) was 27 mg/kg. The compound further showed an LD10 with Mus musculus of 57 mg/kg. The logP in data set [2] (read-out: logP) was 3.8.
For `C[C@@H]1CCC[C@H](NC(=O)N(CCCl)N=O)C1` (relative stereo), the 50% effective dose (ED50) with L1210 is 45 mg/kg. Also, the LD10 in the data set on Mus musculus turned out to be 120 mg/kg. Further, the selectivity ratio in data set [1] was 0.38. Further, in data set [2] (read-out: logP), the lipophilicity (logP) stood at 3.3.
Consider `CC(=O)OC[C@H]1CC[C@H](NC(=O)N(CCF)N=O)CC1`, for which, in the data set on L1210, the ED50 worked out at 45 mg/kg. Further, the LD10 in the data set on Mus musculus came out at 57 mg/kg. Further, the selectivity ratio in data set [1] stood at 0.79. The logP in data set [2] (read-out: logP) was found to be 2.5.
In the case of `O=NN(CCCl)C(=O)N[C@H]1CC[C@H](NC(=O)N(CCCl)N=O)CC1`, the 50% effective dose (ED50) in the data set on L1210 was 71 mg/kg. For the same compound, in the data set with Mus musculus, the LD10 is 270 mg/kg. In addition, in data set [1], the selectivity ratio was found to be 0.26. For the same compound, the lipophilicity (logP) in data set [2] (read-out: logP) amounted to 2.7.
In the same order, the values of `CC(=O)O[C@H]1CC[C@H](NC(=O)N(CCCl)N=O)CC1` are 18 mg/kg, 45 mg/kg, 0.4 and 2.6.
As to `C[C@H]1S(=O)(=O)C[C@@H](NC(=O)N(CCCl)N=O)CS1(=O)=O`, the ED50 in the data set on L1210 was determined as 18 mg/kg. Moreover, the LD10 in the data set with Mus musculus stood at 36 mg/kg. Further, the selectivity ratio in data set [1] was 0.5. The logP in data set [2] (read-out: logP) was -0.4.
As for `O=NN(CCF)C(=O)N[C@H]1CC[C@@H](C(=O)O)CC1`, in the data set with L1210, the 50% effective dose (ED50) was found to be 30 mg/kg. Further, the log distribution coefficient (logD) in data set [3] is -1.7. The LD10 in the data set on Mus musculus is 29 mg/kg.
Regarding `O=NN(CCCl)C(=O)N[C@H]1CC[C@@H](NC(=O)N(CCCl)N=O)CC1`, the ED50 in the data set on L1210 is 40 mg/kg. Also, in the data set on Mus musculus, the LD10 worked out at 84 mg/kg. For the same compound, the selectivity ratio in data set [1] was 0.48. The logP in data set [2] (read-out: logP) is 2.7.
`CCOC(=O)[C@H]1CC[C@H](NC(=O)N(CCCl)N=O)CC1`: the median effective dose (ED50) in the data set on L1210 was found to be 17 mg/kg. For the same compound, the LD10 with Mus musculus was 33 mg/kg. Further, the selectivity ratio in data set [1] came to 0.52. In data set [2] (read-out: logP), the logP was found to be 3.1.
In the same order, the values of `O=NN(CCCl)C(=O)N[C@H]1CC[C@H](C[C@H]2CC[C@H](NC(=O)N(CCCl)N=O)CC2)CC1` are 96 mg/kg, 250 mg/kg, 0.38 and 3.1.
Regarding `O=NN(CCCl)C(=O)N[C@H]1CC[C@@H](O)CC1`, the 50% effective dose (ED50) in the data set with L1210 came to 22 mg/kg. This compound gave an LD10 in the data set with Mus musculus of 46 mg/kg. In addition, the selectivity ratio in data set [1] is 0.48. Further, the lipophilicity (logP) in data set [2] (read-out: logP) was 1.1.
As for `O=NN(CCCl)C(=O)N[C@H]1CCCC[C@@H]1Cl` (relative stereo), the 50% effective dose (ED50) in the data set with L1210 came to 36 mg/kg. Also, the LD10 in the data set with Mus musculus turned out to be 57 mg/kg. For the same compound, the selectivity ratio in data set [1] worked out at 0.63. The log partition coefficient (logP) in data set [2] (read-out: logP) was 2.7.
On to `O=NN(CCCl)C(=O)N[C@H]1CC[C@H](C(=O)O)CC1`, for which the median effective dose (ED50) with L1210 was 17 mg/kg. In addition, the log distribution coefficient (logD) in data set [3] is -1.1. In the data set with Mus musculus, this compound came in with an LD10 of 30 mg/kg. The selectivity ratio in data set [1] was 0.57.
On to `O=NN(CCCl)C(=O)N[C@H]1CCC[C@@H](C(=O)O)C1` (relative stereo), for which, in the data set with L1210, the 50% effective dose (ED50) turned out to be 21 mg/kg. The logD in data set [3] was -1.1. Besides, in the data set on Mus musculus, the LD10 stood at 34 mg/kg. Moreover, the selectivity ratio in data set [1] turned out to be 0.62.
With `C[C@H]1CCC[C@H](NC(=O)N(CCCl)N=O)C1` (relative stereo), the ED50 in the data set with L1210 was determined as 53 mg/kg. Besides, in the data set on Mus musculus, the LD10 is 110 mg/kg. In addition, in data set [1], the selectivity ratio turned out to be 0.48. This compound yielded a log partition coefficient (logP) in data set [2] of 3.3.
In the case of `O=NN(CCCl)C(=O)N[C@H]1CC[C@H](CCl)CC1`, the ED50 with L1210 came to 43 mg/kg. Further, the LD10 with Mus musculus was 62 mg/kg. Besides, the selectivity ratio in data set [1] is 0.69. Moreover, the lipophilicity (logP) in data set [2] (read-out: logP) was 3.7.
As for `O=NN(CCCl)C(=O)N[C@H]1CC[C@H](CC(=O)O)CC1`, the ED50 in the data set with L1210 is 12 mg/kg. For the same compound, the logD in data set [3] was -0.6. This compound also yielded an LD10 with Mus musculus of 40 mg/kg. For the same compound, the selectivity ratio in data set [1] was 0.3.
Turning to `O=NN(CCCl)C(=O)N[C@H]1CCCC[C@H]1Cl` (relative stereo), the median effective dose (ED50) in the data set with L1210 worked out at 54 mg/kg. Besides, in the data set on Mus musculus, the LD10 came to 96 mg/kg. Further, the selectivity ratio in data set [1] is 0.56. Also, the logP in data set [2] (read-out: logP) was 2.7.
As to `O=NN(CCCl)C(=O)N[C@H]1CC[C@H](O)CC1`, the 50% effective dose (ED50) with L1210 amounted to 14 mg/kg. Besides, in the data set with Mus musculus, the LD10 amounted to 42 mg/kg. Further, the selectivity ratio in data set [1] is 0.4. Moreover, the lipophilicity (logP) in data set [2] (read-out: logP) turned out to be 1.
With `O=NN(CCCl)C(=O)NCCCl` [CARMUSTINE], the ED50 with L1210 came out at 20 mg/kg. The LD10 in the data set on Mus musculus turned out to be 41 mg/kg. For the same compound, the selectivity ratio in data set [1] is 0.49. Moreover, the logP in data set [2] (read-out: logP) turned out to be 1.5.
Turning to `O=NN(CCCl)C(=O)N[C@H]1CC[C@@H](CC(=O)O)CC1`, in the data set on L1210, the 50% effective dose (ED50) stood at 27 mg/kg. Further, in data set [3], the logD is -0.6. This compound also had an LD10 in the data set on Mus musculus of 51 mg/kg. In addition, the selectivity ratio in data set [1] came out at 0.53.
With `CO[C@H]1CC[C@H](NC(=O)N(CCCl)N=O)CC1`, in the data set with L1210, the ED50 amounted to 23 mg/kg. Moreover, in the data set on Mus musculus, the LD10 was determined as 44 mg/kg. For the same compound, in data set [1], the selectivity ratio was 0.52. Further, the log partition coefficient (logP) in data set [2] (read-out: logP) turned out to be 2.4.
For `CO[C@H]1CC[C@@H](NC(=O)N(CCCl)N=O)CC1` the same measures were 20 mg/kg, 38 mg/kg, 0.53 and 2.4.
With `O=NN(CCCl)C(=O)N[C@H]1CC[C@@H](C(=O)O)CC1`, the ED50 in the data set on L1210 was found to be 16 mg/kg. Also, the logD in data set [3] is -1.1. The compound also yielded an LD10 with Mus musculus of 26 mg/kg. Also, the selectivity ratio in data set [1] was 0.62.
`O=NN(CCF)C(=O)N[C@H]1CC[C@H](C(=O)O)CC1`: the 50% effective dose (ED50) with L1210 is 30 mg/kg. In addition, the log distribution coefficient (logD) in data set [3] is -1.7. Besides, the LD10 with Mus musculus is 56 mg/kg.

The values above are taken from ChEMBL document CHEMBL3244324, “Synthesis of analogues of N-(2-chloroethyl)-N'-(trans-4-methylcyclohexyl)-N-nitrosourea for evaluation as anticancer agents” (J Med Chem, 1977).
